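Interpolation was linear, between the two tested concentrations surrounding the appropriate level; five concentrations were tested over 48 hours in 96-well plates. TGI is the concentration that stops growth completely.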
Key:
Assay in all cases: NCI anticancer screen, dose series, 48 h
786-0 renal = system: 786-0 renal
A498 renal = system: A498 renal
A549 NSCLC = system: A549 NSCLC
ACHN renal = system: ACHN renal
BT-549 breast = system: BT-549 breast
CAKI-1 renal = system: CAKI-1 renal
CCRF-CEM leukemia = system: CCRF-CEM leukemia
COLO 205 colon = system: COLO 205 colon
DU-145 prostate = system: DU-145 prostate
EKVX NSCLC = system: EKVX NSCLC
HCC-2998 colon = system: HCC-2998 colon
HCT-116 colon = system: HCT-116 colon
HCT-15 colon = system: HCT-15 colon
HL-60(TB) leukemia = system: HL-60(TB) leukemia
HOP-62 NSCLC = system: HOP-62 NSCLC
HOP-92 NSCLC = system: HOP-92 NSCLC
HS 578T breast = system: HS 578T breast
HT29 colon = system: HT29 colon
IGROV1 ovarian = system: IGROV1 ovarian
K-562 leukemia = system: K-562 leukemia
KM12 colon = system: KM12 colon
LOX IMVI melanoma = system: LOX IMVI melanoma
M14 melanoma = system: M14 melanoma
MALME-3M melanoma = system: MALME-3M melanoma
MCF7 breast = system: MCF7 breast
MDA-MB-231 breast = system: MDA-MB-231 breast
MDA-MB-435 = system: MDA-MB-435
MDA-N = system: MDA-N
MOLT-4 leukemia = system: MOLT-4 leukemia
NCI-H226 lung = system: NCI-H226 lung
NCI-H23 lung = system: NCI-H23 lung
NCI-H460 lung = system: NCI-H460 lung
NCI-H522 lung = system: NCI-H522 lung
NCI/ADR-RES ovarian = system: NCI/ADR-RES ovarian
OVCAR-3 ovarian = system: OVCAR-3 ovarian
OVCAR-4 ovarian = system: OVCAR-4 ovarian
OVCAR-5 ovarian = system: OVCAR-5 ovarian
OVCAR-8 ovarian = system: OVCAR-8 ovarian
PC-3 prostate = system: PC-3 prostate
SF-268 CNS = system: SF-268 CNS
SF-295 CNS = system: SF-295 CNS
SF-539 CNS = system: SF-539 CNS
SK-MEL-2 melanoma = system: SK-MEL-2 melanoma
SK-MEL-5 melanoma = system: SK-MEL-5 melanoma
SK-OV-3 ovarian = system: SK-OV-3 ovarian
SN12C renal = system: SN12C renal
SNB-19 CNS = system: SNB-19 CNS
SNB-75 CNS = system: SNB-75 CNS
SR leukemia = system: SR leukemia
SW-620 colon = system: SW-620 colon
T-47D breast = system: T-47D breast
TK-10 renal = system: TK-10 renal
U251 CNS = system: U251 CNS
UACC-257 melanoma = system: UACC-257 melanoma
UACC-62 melanoma = system: UACC-62 melanoma
UO-31 renal = system: UO-31 renal

Measured: TGI

C[N+](C)(CCNc1ccc(NCC[N+](C)(C)Cc2ccc([N+](=O)[O-])cc2)c2c1C(=O)c1ccccc1C2=O)Cc1ccc([N+](=O)[O-])cc1
> 100 µM: all assays above
